Legend:
[1] = Oral bioavailability and pharmacokinetics studies; assay type: in vivo, male Balb/c mice; details: male Balb/c mouse
Experimental: The studies were performed to determine the oral bioavailability and pharmacokinetics of test compounds in male Balb/c mice. Study was performed after obtaining the Institutional Animal Ethics Committee (IAEC) permission. Mice aged 5 to 6 weeks weighing around 25 to 30 g were used for this study. The animals were fasted overnight with free access to water. Animals were administered test compounds by oral route at a 50 mg/kg body weight (formulation: 0.5% methylcellulose in water and 0.1% tween 80. Dose volume 10 ml/kg b.w.) or intravenous route at a dose 10 mg/kg b.w. […] (formulation: 0.9% saline. Dose volume 10 ml/kg b.w.) Blood samples were collected at various time points during the next 24 hours post dose. The blood samples were centrifuged at 3000 g for 5 minutes at 4° C. and the corresponding plasma samples were collected in clean pre-labeled tubes. Then, each sample was subjected to a suitable extraction method and analysed by LC-MS/MS (API 3200 LC-MS/MS system). Data was analyzed using WinNonlin version 5.2 (Pharsight).

[2] = test system: A549 human lung xenograft; assay: In vivo anti-cancer activity using a human tumor xenograft; design: species or system athymic nude mice (nu/nu); details: for % TGI on Day 21: p.o, once daily
Experimental: The study was carried out in athymic nude mice (nu/nu) of BALB-c background at age 6-8 weeks. The animals were maintained in Individually Ventilated cages in a protected and controlled environment. All animal handling and procedures were carried out in a laminar air flow hood, under anesthesia when necessary. The studies were conducted in compliance with protocols approved by Anthem Biosciences Institutional Animal Ethics Committee (IAEC).
Human cell lines derived from tumors of lung were selected for evaluation. The tumor cells cell lines were grown and expanded in RPMI 1640 (supplemented with 1.5 mM L-glutamine and 10% FBS) Subconfluent monolayers were harvested, pelleted and resuspended in RPMI 1640 medium prior to counting on a haemocytometer. Viable cells were counted using trypan blue exclusion and a cell suspension was made in cold media with a concentration of 5×10^6/ml.
[…] of the cell suspension containing 10^6 cells of greater than 90% viability was mixed with an equal volume of Matrigel (10 mg/ml) in PBS (pH7.4) and was kept at 4 deg C. Nude mice were anaesthetized and were injected subcutaneously in the flank region with 0.1 ml using a 25 gauge needle. Animals were monitored daily during the period between inoculation and palpable tumor growth. Tumor size was measured with a digital Vernier caliper and tumor-bearing mice were randomized into control and treatment groups (n=10) when sufficient tumor volume was attained (approx. 100 mm3). The following formula was used to calculate the tumor volume:
Tumor volume=(length×width2)/2.
[…] Tumor volume and was body weight was measured three times per week.

[3] = target: T1, HDAC2 (Homo sapiens, UniProt Q92769); assay: biochemical
T1 construct: purchased Biomol, USA
Experimental: Assay was performed in 96-well black microplate and total volume of the assay was 100 μL. Hela nuclear extract was diluted HDAC assay buffer (final concentration of 3.0 μg/mL). Enzyme mixture was made of 10 μL of diluted enzyme and 30 μL of HDAC buffer. 40 μl of enzyme mixture followed by 10 μL of test compound (final concentration from 0.01 to 10 μM) or vehicle (control) was added to each well. The plate was pre-incubated at 37° C. for 10 minutes. The HDAC reaction was started by adding 50 μl of HDAC substrate Boc-Lys (Ac)-AMC (Anaspec, Inc Fremont, Calif., USA). The plate was incubated at 37° C. for 45 minutes. The reaction was stopped by adding 50 μL of Trypsin stop solution and plate further incubated at 37° C. for 15 minutes. Measuring the fluorescence at excitation wavelength of 360 nm and emission wavelength of 460 nm monitored the release of AMC. Buffer alone and substrate alone served as blank.

[4] = test system: recombinant HDAC isoforms; assay: Isoform selectivity assay (overall statement); details: HDAC1, HDAC2, HDAC3, HDAC6, HDAC8
Experimental: (§1) Following the HDAC inhibition assay using Hela nuclear extract, isoform selectivity was tested using recombinant HDAC isoforms (Biomol, USA).

[5] = target: HDAC1 (Homo sapiens, UniProt Q13547); assay: Isoform selectivity assay, recombinant HDAC isoforms
Experimental: as §1

[6] = target: HDAC3 (Homo sapiens, UniProt O15379); assay: as above
Experimental: as §1

[7] = target: HDAC6 (Homo sapiens, UniProt Q9UBN7); assay: as above
Experimental: as §1

[8] = target: HDAC8 (Homo sapiens, UniProt Q9BY41); assay: as above
Chain of HDAC8 (Q9BY41 whole entry): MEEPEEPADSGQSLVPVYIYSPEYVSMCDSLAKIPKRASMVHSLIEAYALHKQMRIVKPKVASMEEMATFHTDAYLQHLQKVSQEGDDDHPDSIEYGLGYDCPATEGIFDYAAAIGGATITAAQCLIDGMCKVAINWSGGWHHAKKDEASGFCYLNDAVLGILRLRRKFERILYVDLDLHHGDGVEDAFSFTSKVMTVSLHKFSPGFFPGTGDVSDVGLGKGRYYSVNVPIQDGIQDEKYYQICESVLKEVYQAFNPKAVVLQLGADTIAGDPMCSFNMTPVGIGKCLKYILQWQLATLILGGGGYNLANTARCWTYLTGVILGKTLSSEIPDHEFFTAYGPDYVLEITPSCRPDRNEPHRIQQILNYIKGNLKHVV
Experimental: as §1

T1 sequence (Q92769 whole entry): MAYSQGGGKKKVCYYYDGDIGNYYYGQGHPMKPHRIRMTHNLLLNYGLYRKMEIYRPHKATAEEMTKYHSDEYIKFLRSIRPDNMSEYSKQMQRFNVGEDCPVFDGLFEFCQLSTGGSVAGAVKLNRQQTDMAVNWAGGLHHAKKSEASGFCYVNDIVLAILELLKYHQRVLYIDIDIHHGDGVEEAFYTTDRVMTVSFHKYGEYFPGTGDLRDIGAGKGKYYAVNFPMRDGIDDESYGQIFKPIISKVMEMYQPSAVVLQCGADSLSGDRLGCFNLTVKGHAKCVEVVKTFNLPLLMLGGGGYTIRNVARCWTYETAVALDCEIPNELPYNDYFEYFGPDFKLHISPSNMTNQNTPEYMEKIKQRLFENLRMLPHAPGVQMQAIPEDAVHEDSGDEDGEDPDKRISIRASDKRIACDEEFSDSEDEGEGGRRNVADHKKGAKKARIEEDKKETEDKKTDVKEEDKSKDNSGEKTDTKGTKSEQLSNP
Chain of HDAC6 (Q9UBN7 whole entry): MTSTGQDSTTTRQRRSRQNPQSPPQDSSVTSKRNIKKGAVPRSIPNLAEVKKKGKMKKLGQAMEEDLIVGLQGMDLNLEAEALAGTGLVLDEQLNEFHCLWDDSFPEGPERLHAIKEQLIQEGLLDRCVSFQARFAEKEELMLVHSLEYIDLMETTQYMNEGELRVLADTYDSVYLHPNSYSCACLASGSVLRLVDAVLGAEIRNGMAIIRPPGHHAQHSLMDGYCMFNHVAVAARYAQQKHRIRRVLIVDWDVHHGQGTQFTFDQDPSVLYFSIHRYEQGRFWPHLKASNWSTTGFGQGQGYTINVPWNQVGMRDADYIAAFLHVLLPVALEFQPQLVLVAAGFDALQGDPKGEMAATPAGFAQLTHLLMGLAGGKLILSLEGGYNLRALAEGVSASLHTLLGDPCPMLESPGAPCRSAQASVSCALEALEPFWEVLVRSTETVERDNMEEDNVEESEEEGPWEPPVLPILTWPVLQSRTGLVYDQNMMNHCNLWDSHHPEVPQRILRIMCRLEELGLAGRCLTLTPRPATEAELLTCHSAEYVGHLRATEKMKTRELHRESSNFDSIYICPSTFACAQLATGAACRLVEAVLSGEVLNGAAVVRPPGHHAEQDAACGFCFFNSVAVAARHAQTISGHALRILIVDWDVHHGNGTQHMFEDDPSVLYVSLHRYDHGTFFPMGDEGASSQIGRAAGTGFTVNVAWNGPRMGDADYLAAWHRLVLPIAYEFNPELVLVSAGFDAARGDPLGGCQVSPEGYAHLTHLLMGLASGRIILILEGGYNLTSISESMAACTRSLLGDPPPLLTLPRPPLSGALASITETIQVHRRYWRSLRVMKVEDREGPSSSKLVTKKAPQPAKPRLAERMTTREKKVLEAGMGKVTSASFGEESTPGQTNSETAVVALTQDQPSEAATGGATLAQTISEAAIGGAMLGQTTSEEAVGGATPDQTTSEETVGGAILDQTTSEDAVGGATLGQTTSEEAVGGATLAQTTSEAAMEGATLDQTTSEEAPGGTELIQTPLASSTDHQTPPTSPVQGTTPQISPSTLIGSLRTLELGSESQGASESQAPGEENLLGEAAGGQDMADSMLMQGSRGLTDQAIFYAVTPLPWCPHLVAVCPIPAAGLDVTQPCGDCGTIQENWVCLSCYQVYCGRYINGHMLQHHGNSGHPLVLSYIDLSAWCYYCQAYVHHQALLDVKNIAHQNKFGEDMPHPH
Chain of HDAC3 (O15379 whole entry): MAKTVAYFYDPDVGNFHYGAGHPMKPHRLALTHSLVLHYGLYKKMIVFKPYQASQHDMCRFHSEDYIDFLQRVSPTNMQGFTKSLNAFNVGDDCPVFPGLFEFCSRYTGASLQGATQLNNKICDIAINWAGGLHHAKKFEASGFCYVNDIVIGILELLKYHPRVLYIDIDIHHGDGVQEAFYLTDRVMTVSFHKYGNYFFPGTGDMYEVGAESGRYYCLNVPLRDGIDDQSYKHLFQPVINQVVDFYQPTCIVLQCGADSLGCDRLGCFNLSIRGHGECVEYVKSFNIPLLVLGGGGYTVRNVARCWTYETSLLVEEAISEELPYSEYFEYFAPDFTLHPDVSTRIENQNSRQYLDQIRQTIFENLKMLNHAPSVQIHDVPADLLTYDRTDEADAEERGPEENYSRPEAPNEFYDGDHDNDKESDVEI
Chain of HDAC1 (Q13547 whole entry, canonical isoform): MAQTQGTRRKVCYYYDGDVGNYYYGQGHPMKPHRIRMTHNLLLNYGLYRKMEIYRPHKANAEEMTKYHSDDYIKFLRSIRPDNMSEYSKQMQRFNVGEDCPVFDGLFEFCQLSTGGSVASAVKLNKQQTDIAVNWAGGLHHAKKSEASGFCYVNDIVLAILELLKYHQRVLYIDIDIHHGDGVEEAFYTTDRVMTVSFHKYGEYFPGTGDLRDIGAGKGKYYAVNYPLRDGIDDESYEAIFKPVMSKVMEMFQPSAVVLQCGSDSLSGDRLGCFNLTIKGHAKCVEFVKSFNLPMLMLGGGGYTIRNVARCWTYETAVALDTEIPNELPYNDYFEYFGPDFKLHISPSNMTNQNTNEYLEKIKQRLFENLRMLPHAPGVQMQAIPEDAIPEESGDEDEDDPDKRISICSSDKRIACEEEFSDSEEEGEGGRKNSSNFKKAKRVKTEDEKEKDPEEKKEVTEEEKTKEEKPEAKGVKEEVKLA

| AUC last 0 to 24 h ([1]; oral 50 mg/kg) [ng·h/mL] | T1/2 ([1]; oral 50 mg/kg) [min] | bioavailability ([1]; plasma, oral 50 mg/kg vs intravenous) [%] | Cmax ([1]; plasma, oral 50 mg/kg) [ng/mL] | Tmax ([1]; plasma, oral 50 mg/kg) [min] | Compound | % TGI on Day 21 ([2]; 150 mg/kg) [%] | IC50 [3] [nM] | % TGI on Day 21 ([2]; 12.5 mg/kg, listed as Ex. 8) [%] | % TGI on Day 21 ([2]; 12.5 mg/kg, listed as Ex.8) [%] | % TGI on Day 21 ([2]; 25 mg/kg, listed as Ex. 8) [%] | % TGI on Day 21 ([2]; 25 mg/kg, listed as Ex.8) [%] | % TGI on Day 21 ([2]; 50 mg/kg, listed as Ex. 8) [%] | % TGI on Day 21 ([2]; 50 mg/kg, listed as Ex.8) [%] | body weight compared to the vehicle control group ([2]; 21 days oral treatment) | isoform selectivity [4] | IC50 [5] [nM] | IC50 [6] [nM] | IC50 [7] [nM] | IC50 [8] [nM] |
| --- | --- | --- | --- | --- | --- | --- | --- | --- | --- | --- | --- | --- | --- | --- | --- | --- | --- | --- | --- |
| 347 | 48 | 11 ± 3 | 580 | 4.8 | O=C(CCCCCCC(=O)Nc1ccccc1)NO [SAHA, Suberoylanilide Hydroxamic Acid, reference compound] | 53.6 | – | – | – | – | – | – | – | – | – | – | – | – | – |
| – | – | – | – | – | O=C(NO)c1ccc(Cn2cc(-c3ccc(CN4CCCC4)cc3)nn2)cc1 [Example 8, N-Hydroxy-4-[4-(4-pyrrolidin-1-ylmethyl-phenyl)-[1,2,3]triazol-1-ylmethyl]-benzamide] | – | 29 | 27.3 | 27 | 36.9 | 32 | 52.1 | 57 | no significant reduction in body weight | pan-HDAC inhibitor | 25 | 2 | 11 | 282 |

Source: patent publication US20120101099A1, “HISTONE DEACETYLASE INHIBITORS” (ANTHEM BIOSCIENCES PRIVATE LIMITED, priority 2009, published 2012)
